Data from patent US8192962B2, “Processes for detecting toxic substances” (Daikin Industries, Ltd., priority 2001, dated 2012).

Tested on: Metabolism protein genes
Assay: DNA chip mRNA expression in yeast, metabolism protein genes (Table 7)
Type: cell-based, Saccharomyces cerevisiae S288C
In short: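 Chemical exposure: 2 h, log-phase S. cerevisiae S288C, YPD, 25° C., dose set to inhibit growth without death. Profiling: mRNA labeled by reverse transcription with Cy3- or Cy5-dUTP, hybridized to whole-genome array. Output: fluorescence ratio against untreated culture.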

COc1cc(CNC(=O)CCCCC=CC(C)C)ccc1O [(12), 8-methyl-N-vanillyl-6-nonenamide]
1.5: The level of expressed mRNA in the presence of chemical substance/The level of expressed mRNA in the absence of chemical substance (yeast gene YKL152C) | The level of expressed mRNA in the presence of chemical substance/The level of expressed mRNA in the absence of chemical substance (yeast gene YKR039W)
0.4: level of expressed mRNA in the presence/in the absence of chemical substance (yeast gene YLR058C)
1.4: level of expressed mRNA in the presence/in the absence of chemical substance (yeast gene YLR044C) | level of expressed mRNA in the presence/in the absence of chemical substance (yeast gene YPL028W)
0.7: level of expressed mRNA in the presence/in the absence of chemical substance (yeast gene YKR034W) | level of expressed mRNA in the presence/in the absence of chemical substance (yeast gene YLR006C) | The level of expressed mRNA in the presence of chemical substance/The level of expressed mRNA in the absence of chemical substance (yeast gene YLR307W) | level of expressed mRNA in the presence/in the absence of chemical substance (yeast gene YMR083W) | The level of expressed mRNA in the presence of chemical substance/The level of expressed mRNA in the absence of chemical substance (yeast gene YNL322C) | level of expressed mRNA in the presence/in the absence of chemical substance (yeast gene YOR108W) | level of expressed mRNA in the presence/in the absence of chemical substance (yeast gene YOR348C) | level of expressed mRNA in the presence/in the absence of chemical substance (yeast gene YPL148C) | level of expressed mRNA in the presence/in the absence of chemical substance (yeast gene YPR113W)
0.9: The level of expressed mRNA in the presence of chemical substance/The level of expressed mRNA in the absence of chemical substance (yeast gene YKL213C) | level of expressed mRNA in the presence/in the absence of chemical substance (yeast gene YLR056W) | The level of expressed mRNA in the presence of chemical substance/The level of expressed mRNA in the absence of chemical substance (yeast gene YLR273C) | The level of expressed mRNA in the presence of chemical substance/The level of expressed mRNA in the absence of chemical substance (yeast gene YLR348C) | level of expressed mRNA in the presence/in the absence of chemical substance (yeast gene YMR015C) | level of expressed mRNA in the presence/in the absence of chemical substance (yeast gene YMR261C) | The level of expressed mRNA in the presence of chemical substance/The level of expressed mRNA in the absence of chemical substance (yeast gene YNL045W) | The level of expressed mRNA in the presence of chemical substance/The level of expressed mRNA in the absence of chemical substance (yeast gene YNL331C) | level of expressed mRNA in the presence/in the absence of chemical substance (yeast gene YOL156W) | The level of expressed mRNA in the presence of chemical substance/The level of expressed mRNA in the absence of chemical substance (yeast gene YOR130C) | level of expressed mRNA in the presence/in the absence of chemical substance (yeast gene YOR251C)
1.3: level of expressed mRNA in the presence/in the absence of chemical substance (yeast gene YKL060C) | The level of expressed mRNA in the presence of chemical substance/The level of expressed mRNA in the absence of chemical substance (yeast gene YKL091C) | The level of expressed mRNA in the presence of chemical substance/The level of expressed mRNA in the absence of chemical substance (yeast gene YML070W) | The level of expressed mRNA in the presence of chemical substance/The level of expressed mRNA in the absence of chemical substance (yeast gene YMR271C) | The level of expressed mRNA in the presence of chemical substance/The level of expressed mRNA in the absence of chemical substance (yeast gene YNL012W) | The level of expressed mRNA in the presence of chemical substance/The level of expressed mRNA in the absence of chemical substance (yeast gene YOL058W) | level of expressed mRNA in the presence/in the absence of chemical substance (yeast gene YOL086C) | level of expressed mRNA in the presence/in the absence of chemical substance (yeast gene YOR176W) | The level of expressed mRNA in the presence of chemical substance/The level of expressed mRNA in the absence of chemical substance (yeast gene YPR167C)
0.8: The level of expressed mRNA in the presence of chemical substance/The level of expressed mRNA in the absence of chemical substance (yeast gene YJR148W) | level of expressed mRNA in the presence/in the absence of chemical substance (yeast gene YKL148C) | level of expressed mRNA in the presence/in the absence of chemical substance (yeast gene YMR011W) | The level of expressed mRNA in the presence of chemical substance/The level of expressed mRNA in the absence of chemical substance (yeast gene YMR296C) | level of expressed mRNA in the presence/in the absence of chemical substance (yeast gene YNL025C) | The level of expressed mRNA in the presence of chemical substance/The level of expressed mRNA in the absence of chemical substance (yeast gene YNL106C) | The level of expressed mRNA in the presence of chemical substance/The level of expressed mRNA in the absence of chemical substance (yeast gene YNR059W) | The level of expressed mRNA in the presence of chemical substance/The level of expressed mRNA in the absence of chemical substance (yeast gene YOL165C) | level of expressed mRNA in the presence/in the absence of chemical substance (yeast gene YOR085W) | level of expressed mRNA in the presence/in the absence of chemical substance (yeast gene YOR142W) | level of expressed mRNA in the presence/in the absence of chemical substance (yeast gene YPR165W)
1.9: The level of expressed mRNA in the presence of chemical substance/The level of expressed mRNA in the absence of chemical substance (yeast gene YOL153C)
0.6: level of expressed mRNA in the presence/in the absence of chemical substance (yeast gene YJR143C) | level of expressed mRNA in the presence/in the absence of chemical substance (yeast gene YLR089C) | The level of expressed mRNA in the presence of chemical substance/The level of expressed mRNA in the absence of chemical substance (yeast gene YLR180W) | level of expressed mRNA in the presence/in the absence of chemical substance (yeast gene YLR284C) | level of expressed mRNA in the presence/in the absence of chemical substance (yeast gene YLR372W) | level of expressed mRNA in the presence/in the absence of chemical substance (yeast gene YML022W) | The level of expressed mRNA in the presence of chemical substance/The level of expressed mRNA in the absence of chemical substance (yeast gene YMR189W) | level of expressed mRNA in the presence/in the absence of chemical substance (yeast gene YOL116W)
1.6: The level of expressed mRNA in the presence of chemical substance/The level of expressed mRNA in the absence of chemical substance (yeast gene YKL104C)
1.1: The level of expressed mRNA in the presence of chemical substance/The level of expressed mRNA in the absence of chemical substance (yeast gene YMR008C) | The level of expressed mRNA in the presence of chemical substance/The level of expressed mRNA in the absence of chemical substance (yeast gene YMR020W) | level of expressed mRNA in the presence/in the absence of chemical substance (yeast gene YMR205C) | The level of expressed mRNA in the presence of chemical substance/The level of expressed mRNA in the absence of chemical substance (yeast gene YNL104C) | level of expressed mRNA in the presence/in the absence of chemical substance (yeast gene YNL192W) | The level of expressed mRNA in the presence of chemical substance/The level of expressed mRNA in the absence of chemical substance (yeast gene YNR033W) | The level of expressed mRNA in the presence of chemical substance/The level of expressed mRNA in the absence of chemical substance (yeast gene YOL126C) | The level of expressed mRNA in the presence of chemical substance/The level of expressed mRNA in the absence of chemical substance (yeast gene YOR099W) | level of expressed mRNA in the presence/in the absence of chemical substance (yeast gene YPL135W)
1.2: level of expressed mRNA in the presence/in the absence of chemical substance (yeast gene YLR354C) | The level of expressed mRNA in the presence of chemical substance/The level of expressed mRNA in the absence of chemical substance (yeast gene YML100W) | level of expressed mRNA in the presence/in the absence of chemical substance (yeast gene YMR323W) | The level of expressed mRNA in the presence of chemical substance/The level of expressed mRNA in the absence of chemical substance (yeast gene YNL332W) | level of expressed mRNA in the presence/in the absence of chemical substance (yeast gene YOR103C) | The level of expressed mRNA in the presence of chemical substance/The level of expressed mRNA in the absence of chemical substance (yeast gene YOR347C) | The level of expressed mRNA in the presence of chemical substance/The level of expressed mRNA in the absence of chemical substance (yeast gene YPR026W) | level of expressed mRNA in the presence/in the absence of chemical substance (yeast gene YPR183W)
1.8: The level of expressed mRNA in the presence of chemical substance/The level of expressed mRNA in the absence of chemical substance (yeast gene YML054C) | The level of expressed mRNA in the presence of chemical substance/The level of expressed mRNA in the absence of chemical substance (yeast gene YNL231C)
1.0: The level of expressed mRNA in the presence of chemical substance/The level of expressed mRNA in the absence of chemical substance (yeast gene YJR155W) | The level of expressed mRNA in the presence of chemical substance/The level of expressed mRNA in the absence of chemical substance (yeast gene YKL035W) | level of expressed mRNA in the presence/in the absence of chemical substance (yeast gene YKL157W) | The level of expressed mRNA in the presence of chemical substance/The level of expressed mRNA in the absence of chemical substance (yeast gene YKL215C) | The level of expressed mRNA in the presence of chemical substance/The level of expressed mRNA in the absence of chemical substance (yeast gene YLL058W) | level of expressed mRNA in the presence/in the absence of chemical substance (yeast gene YLR081W) | The level of expressed mRNA in the presence of chemical substance/The level of expressed mRNA in the absence of chemical substance (yeast gene YLR299W) | level of expressed mRNA in the presence/in the absence of chemical substance (yeast gene YLR304C) | The level of expressed mRNA in the presence of chemical substance/The level of expressed mRNA in the absence of chemical substance (yeast gene YNL169C) | The level of expressed mRNA in the presence of chemical substance/The level of expressed mRNA in the absence of chemical substance (yeast gene YNR019W) | level of expressed mRNA in the presence/in the absence of chemical substance (yeast gene YOL108C) | The level of expressed mRNA in the presence of chemical substance/The level of expressed mRNA in the absence of chemical substance (yeast gene YOR336W) | The level of expressed mRNA in the presence of chemical substance/The level of expressed mRNA in the absence of chemical substance (yeast gene YPL017C) | level of expressed mRNA in the presence/in the absence of chemical substance (yeast gene YPL057C)
1.7: The level of expressed mRNA in the presence of chemical substance/The level of expressed mRNA in the absence of chemical substance (yeast gene YMR105C) | level of expressed mRNA in the presence/in the absence of chemical substance (yeast gene YOR178C)
0.5: The level of expressed mRNA in the presence of chemical substance/The level of expressed mRNA in the absence of chemical substance (yeast gene YLR300W) | level of expressed mRNA in the presence/in the absence of chemical substance (yeast gene YOR002W) | level of expressed mRNA in the presence/in the absence of chemical substance (yeast gene YOR128C)
